{"source": "patent US7144912B2", "about": "“Pyrrole-type compounds, compositions, and methods for treating cancer, treating viral diseases and causing immunosuppression” (Gemin X Biotechnologies Inc., priority 2001, dated 2006)", "key": {"[1]": {"system": "H1299 non-small cell lung carcinoma cells", "experiment": "caspase activation in lysates of treated cells (apoptosis)", "assay_type": "cell-based", "settings": "H1299 cancer cell line; 16 hr incubation; positive = 1.5-fold (150%) of dimethyl sulfoxide control", "experimental": "(§1) H1299 non-small cell lung carcinoma cells, C33A cervical carcinoma cells, Mrc-5 normal lung fibroblasts (American Type Culture Collection, Manassas, Va. USA) and HMEC normal mammary epithelial cells (Clonetics San Diego, Calif., USA) were maintained in media recommended by the American Type Culture Collection. Cells were harvested and suspended at 2.5–5×10^5 cells/ml in media. A 45 μL aliquot of cell suspension was added to each well of a 96-well microtiter plate (PerkinElmer Life Sciences Inc, Boston, Mass. USA). Cells were incubated overnight in a 5% CO2-95% humidity incubator at 37° C. and then, 5 μL of a 10% dimethyl sulfoxide (Sigma-Aldrich Inc., St. Louis, Mo. USA) solution containing various concentrations of Compound 79 or 5 μL of 10% dimethyl sulfoxide (solvent control) were added. The plates were further incubated for 16 hr. […]\n(§2) The reaction was then filtered using Sephadex G-10 Poly-Prep chromatography column (Amersham Biosciences, Inc, Piscataway, N.J., USA). […] The number of radioactive counts per minute (cpm) in each well of the sample plate was measured using a liquid scintillation counter (PerkinElmer Life Sciences Inc, Boston, Mass. USA). The potency of caspase cascade activation was determined by the percentage increase in cpm in wells compared to cells treated only with dimethyl sulfoxide."}, "[2]": {"system": "C33A cervical carcinoma cells", "experiment": "caspase activation in lysates of treated cells (apoptosis)", "assay_type": "cell-based", "settings": "C33A cancer cell line; 16 hr incubation; positive = 1.5-fold (150%) of dimethyl sulfoxide control", "experimental": "as §1, §2"}}}
{"smiles": "COC1=CC(c2ccc[nH]2)=N/C1=C/c1cc2ccccc2[nH]1", "note": "[Compound 79, 4-methoxy-5-(1H-indol-2yl-methylene)-2,2′-bi-1H-pyrrole]", "values": [{"measurement": "Concentration Required for Positive Caspase Activation", "setting": "[1]", "result": 250, "unit": "µM"}, {"measurement": "Concentration Required for Positive Caspase Activation", "setting": "[2]", "result": 125, "unit": "µM"}]}
